The test system of one test is HSP72 in SK-OV-3 cells. As to the kind of experiment: Cell-based ELISA (Cellisa) assay, SK-OV-3 cells: inhibition of 17-AAG-induced HSP72. Conditions: SK-OV-3 cells (Examples 169-218). The method, then: U2OS cells (5-8×10^4 cells/mL) or SK-OV-3 cells (5-8×10^4 cells/mL) were seeded into 96-well plates and incubated at 37° C. for 48 h. Compounds were then added at a range of concentrations and incubated for 1 h before addition of 17-AAG (250 nM). Cells were then incubated for 18 h. The medium was removed washed 2× with PBS and cells were then fixed with fixing solution (4% paraformaldehyde, 0.3% TritonX-100 in PBS) for 30 min at 4° C. The plates were then washed 2× with PBS before blocking with 5% milk for 30 min at 37° C. After washing the plates 4× with 0.1% Tween-20/deionised water, HSP72 antibody (SPA-810, Enzo Life) was added for 1.5 h at 37° C. Following 4× washes, the plates were incubated with europium-labelled anti-mouse antibody (0.6 ug/ml) in Delfia assay buffer (Perkin Elmer) for 1 h at 37° C. After washing the plates, Delfia enhancement solution was added, shaken for 10 min before reading in the Envision plate reader (Perkin-Elmer) with excitation at 340 nm and emission at 615 nm. The plates were washed again before protein determination using the bicinchoninic acid assay (BCA assay, Pierce Biotechnology). The europium counts were normalised for the amount of protein in each well. The 50% inhibitory concentration value of the compound was then calculated.
In general terms: ELISA stands for enzyme-linked immunosorbent assay.

The subject of the next test is HSP72 in U2OS cells. Nature of the test: Cell-based ELISA (Cellisa) assay, U2OS cells: inhibition of 17-AAG-induced HSP72. Conditions: U2OS cells (Examples 1-168).
The test system of another test is U2OS cells. As to the kind of experiment: Titre Blue cell viability assay, U2OS cells. Format: cell-based.

Read-outs that look alike come from different tables or passages of the source.

Our source for the IC50 values is patent US9701664B2, “Fused 1,4-dihydrodioxin derivatives as inhibitors of heat shock transcription factor 1” (Cancer Research Technology Limited, priority 2013, dated 2017).

As usually defined, the IC50 is the concentration at which inhibition is half-maximal. “2-((4-(sec-butyl)piperazin-111)methyl)-N-(2-chloro-5-(2,3-dihydrobenzo[b][1,4]dioxine-6-carboxamido)phenyl)quinoline-6-carboxamide [Example 193]” gave a concentration for half-maximal inhibition (IC50) in the test with HSP72 in SK-OV-3 cells of 66 nM.

The compound “2-((4-(sec-butyl)piperazin-111)methyl)-N-(5-(2,3-dihydrobenzo[b][1,4]dioxine-6-carboxamido)-2-fluorophenyl)quinoline-6-carboxamide [Example 179]” displayed a half-maximal inhibitory concentration (IC50) with HSP72 in SK-OV-3 cells of 19 nM.

As to “2-((4-(tert-butyl)piperazin-111)methyl)-N-(5-(2,3-dihydrobenzo[b][1,4]dioxine-6-carboxamido)-2-fluorophenyl)quinoline-6-carboxamide [Example 177]”, the IC50 in the test with HSP72 in SK-OV-3 cells came out at 70 nM.

For the compound `CC1CCCN1Cc1ccc2cc(C(=O)Nc3cc(NC(=O)c4ccc5c(c4)OCCO5)ccc3F)ccc2n1` (racemic) [Example 190, (rac)-N-(5-(2,3-dihydrobenzo[b][1,4]dioxine-6-carboxamido)-2-fluorophenyl)-2-((2-methylpyrrolidin-1-yl)methyl)quinoline-6-carboxamide], the 50% inhibitory concentration (IC50) in the test on HSP72 in SK-OV-3 cells (Homo sapiens) was 267 nM.

As for `Cc1ccc(NC(=O)c2ccc3c(c2)OCCO3)cc1NC(=O)c1ccc2nc(COCC(C)C)ccc2c1` [Example 151, N-(5-(2,3-dihydrobenzo[b][1,4]dioxine-6-carboxamido)-2-methylphenyl)-2-(isobutoxymethyl)quinoline-6-carboxamide], the half-maximal inhibitory concentration (IC50) in the test on HSP72 in U2OS cells (Homo sapiens) is 100 nM; with U2OS cells (Homo sapiens, U2OS), 26 nM.

Turning to `Cc1ccc(NC(=O)c2ccc3c(c2)OCCO3)cc1NC(=O)c1ccc2c(c1)CCC(C)N2` (stereo not drawn) [Example 152, N-(5-(2,3-dihydrobenzo[b][1,4]dioxine-6-carboxamido)-2-methylphenyl)-2-methyl-1,2,3,4-tetrahydroquinoline-6-carboxamide], the IC50 in the test with HSP72 in U2OS cells (Homo sapiens) was 105 nM; with U2OS cells (Homo sapiens, U2OS), 153 nM.

On to `Cc1ccc(NC(=O)c2ccc3c(c2)OCCO3)cc1NC(=O)c1ccc2cnc(OCCN3CCCC3)cc2c1` [Example 156, N-(5-(2,3-dihydrobenzo[b][1,4]dioxine-6-carboxamido)-2-methylphenyl)-3-(2-(pyrrolidin-1-yl)ethoxy)isoquinoline-6-carboxamide], for which the half-inhibitory concentration (IC50) is 161 nM in the test with HSP72 in U2OS cells (Homo sapiens) and 79 nM in the test on U2OS cells (Homo sapiens, U2OS).

Consider `Cc1ccc(NC(=O)c2ccc3c(c2)OCCO3)cc1NC(=O)c1cnc2cccc(CCN3CCCC3)c2c1` [Example 158, N-(5-(2,3-dihydrobenzo[b][1,4]dioxine-6-carboxamido)-2-methylphenyl)-5-(2-(pyrrolidin-1-yl)ethyl)quinoline-3-carboxamide], for which the IC50 turned out to be 239 nM in the test with HSP72 in U2OS cells (Homo sapiens) and 202 nM in the test with U2OS cells (Homo sapiens, U2OS).

Turning to `C=CCc1cccc2ncc(C(=O)Nc3cc(NC(=O)c4ccc5c(c4)OCCO5)ccc3C)cc12` [Example 161, 5-allyl-N-(5-(2,3-dihydrobenzo[b][1,4]dioxine-6-carboxamido)-2-methylphenyl)quinoline-3-carboxamide], the IC50 with HSP72 in U2OS cells (Homo sapiens) came to 911 nM; in the test with U2OS cells (Homo sapiens, U2OS) it was 557 nM.

With `Cc1ccc(NC(=O)c2ccc3c(c2)OCCO3)cc1NC(=O)c1ccc2nc(N(C)CCC(=O)O)ccc2c1` [Example 163, 3-((6-((5-(2,3-dihydrobenzo[b][1,4]dioxine-6-carboxamido)-2-methylphenyl)carbamoyl)quinolin-2-yl)(methyl)amino)propanoic acid], the half-maximal inhibitory concentration (IC50) in the test on HSP72 in U2OS cells (Homo sapiens) came to 1130 nM; in the test on U2OS cells (Homo sapiens, U2OS), 1850 nM.

As to `COCc1ccc(NC(=O)c2ccc3c(c2)OCCO3)cc1NC(=O)c1ccc2nc(C)ccc2c1` [Example 166, N-(5-(2,3-dihydrobenzo[b][1,4]dioxine-6-carboxamido)-2-(methoxymethyl)phenyl)-2-methylquinoline-6-carboxamide], the IC50 in the test on HSP72 in U2OS cells (Homo sapiens) amounted to 298 nM; in the test with U2OS cells (Homo sapiens, U2OS), 68 nM.

Consider `Cc1ccc2cc(C(=O)Nc3cc(NC(=O)c4ccc5c(c4)OCCO5)ccc3CO)ccc2n1` [Example 167, N-(5-(2,3-dihydrobenzo[b][1,4]dioxine-6-carboxamido)-2-(hydroxymethyl)phenyl)-2-methylquinoline-6-carboxamide], for which the half-maximal inhibitory concentration (IC50) with HSP72 in U2OS cells (Homo sapiens) came to 176 nM; in the test with U2OS cells (Homo sapiens, U2OS), 86 nM.

On to `Cc1ccc(NC(=O)c2ccc3c(c2)OCCO3)cc1NC(=O)c1ccc2c(c1)CS(=O)(=O)N2C` [Example 168, N-(5-(2,3-dihydrobenzo[b][1,4]dioxine-6-carboxamido)-2-methylphenyl)-1-methyl-1,3-dihydrobenzo[c]isothiazole-5-carboxamide 2,2-dioxide], for which the 50% inhibitory concentration (IC50) with HSP72 in U2OS cells (Homo sapiens) came to 14 nM; with U2OS cells (Homo sapiens, U2OS), 19 nM.

The compound `CCN1CCN(Cc2ccc3cc(C(=O)Nc4cc(NC(=O)c5ccc6c(c5)OCCO6)ccc4F)ccc3n2)CC1` [Example 169, N-(5-(2,3-dihydrobenzo[b][1,4]dioxine-6-carboxamido)-2-fluorophenyl)-2-((4-ethylpiperazin-1-yl)methyl)quinoline-6-carboxamide] yielded an IC50 in the test on HSP72 in SK-OV-3 cells (Homo sapiens) of 56 nM.

As to `O=C(Nc1ccc(F)c(NC(=O)c2ccc3nc(CN4CCCC4)ccc3c2)c1)c1ccc2c(c1)OCCO2` [Example 170, N-(5-(2,3-dihydrobenzo[b][1,4]dioxine-6-carboxamido)-2-fluorophenyl)-2-(pyrrolidin-1-ylmethyl)quinoline-6-carboxamide], in the test with HSP72 in SK-OV-3 cells (Homo sapiens), the half-inhibitory concentration (IC50) came to 379 nM.

The compound `O=C(Nc1ccc(F)c(NC(=O)c2ccc3nc(CN4CCC4)ccc3c2)c1)c1ccc2c(c1)OCCO2` [Example 171, 2-(azetidin-1-ylmethyl)-N-(5-(2,3-dihydrobenzo[b][1,4]dioxine-6-carboxamido)-2-fluorophenyl)quinoline-6-carboxamide] yielded an IC50 in the test with HSP72 in SK-OV-3 cells (Homo sapiens) of 450 nM.

For `O=C(Nc1ccc(F)c(NC(=O)c2ccc3nc(CN4CCCCC4)ccc3c2)c1)c1ccc2c(c1)OCCO2` [Example 172, N-(5-(2,3-dihydrobenzo[b][1,4]dioxine-6-carboxamido)-2-fluorophenyl)-2-(piperidin-1-ylmethyl)quinoline-6-carboxamide], the midpoint of inhibition with HSP72 in SK-OV-3 cells (Homo sapiens), the IC50, lay at 675 nM.

`CN1CCN(Cc2ccc3cc(C(=O)Nc4cc(NC(=O)c5ccc6c(c5)OCCO6)ccc4F)ccc3n2)CC1` [Example 173, N-(5-(2,3-dihydrobenzo[b][1,4]dioxine-6-carboxamido)-2-fluorophenyl)-2-((4-methylpiperazin-1-yl)methyl)quinoline-6-carboxamide] registered a 50% inhibitory concentration (IC50) in the test with HSP72 in SK-OV-3 cells (Homo sapiens) of 100 nM.

In the test on HSP72 in SK-OV-3 cells (Homo sapiens), `O=C(Nc1ccc(F)c(NC(=O)c2ccc3nc(CN4CCNCC4)ccc3c2)c1)c1ccc2c(c1)OCCO2` [Example 174, N-(5-(2,3-dihydrobenzo[b][1,4]dioxine-6-carboxamido)-2-fluorophenyl)-2-(piperazin-1-ylmethyl)quinoline-6-carboxamide] displayed a half-inhibitory concentration (IC50) of 78 nM.

The compound `C[C@H]1CCCN1Cc1ccc2cc(C(=O)Nc3cc(NC(=O)c4ccc5c(c4)OCCO5)ccc3F)ccc2n1` [Example 175, (S)—N-(5-(2,3-dihydrobenzo[b][1,4]dioxine-6-carboxamido)-2-fluorophenyl)-2-((2-methylpyrrolidin-1-yl)methyl)quinoline-6-carboxamide] gave a half-inhibitory concentration (IC50) in the test with HSP72 in SK-OV-3 cells (Homo sapiens) of 647 nM.

As for `C[C@@H]1CCCN1Cc1ccc2cc(C(=O)Nc3cc(NC(=O)c4ccc5c(c4)OCCO5)ccc3F)ccc2n1` [Example 176, (R)—N-(5-(2,3-dihydrobenzo[b][1,4]dioxine-6-carboxamido)-2-fluorophenyl)-2-((2-methylpyrrolidin-1-yl)methyl)quinoline-6-carboxamide], in the test on HSP72 in SK-OV-3 cells (Homo sapiens), it took 313 nM to reach half-maximal inhibition (IC50).

In the test on HSP72 in SK-OV-3 cells (Homo sapiens), `O=C(Nc1ccc(F)c(NC(=O)c2ccc3nc(CN4CCN(C5CC5)CC4)ccc3c2)c1)c1ccc2c(c1)OCCO2` [Example 178, 2-((4-cyclopropylpiperazin-1-yl)methyl)-N-(5-(2,3-dihydrobenzo[b][1,4]dioxine-6-carboxamido)-2-fluorophenyl)quinoline-6-carboxamide] gave a 50% inhibitory concentration (IC50) of 44 nM.

As for `CCN1C[C@@H]2C[C@H]1CN2Cc1ccc2cc(C(=O)Nc3cc(NC(=O)c4ccc5c(c4)OCCO5)ccc3F)ccc2n1` [Example 180, N-(5-(2,3-dihydrobenzo[b][1,4]dioxine-6-carboxamido)-2-fluorophenyl)-2-(((1S,4S)-5-ethyl-2,5-diazabicyclo[2.2.1]heptan-2-yl)methyl)quinoline-6-carboxamide], in the test with HSP72 in SK-OV-3 cells (Homo sapiens), the 50% inhibitory concentration (IC50) was 208 nM.

For `O=C(Nc1ccc(F)c(NC(=O)c2ccc3nc(CN4CC5(CCC5)C4)ccc3c2)c1)c1ccc2c(c1)OCCO2` [Example 181, 2-(2-azaspiro[3.3]heptan-2-ylmethyl)-N-(5-(2,3-dihydrobenzo[b][1,4]dioxine-6-carboxamido)-2-fluorophenyl)quinoline-6-carboxamide], it took 149 nM to reach half-maximal inhibition in the test with HSP72 in SK-OV-3 cells (Homo sapiens) (IC50).

With “N-(5-(2,3-dihydrobenzo[b][1,4]dioxine-6-carboxamido)-2-methylphenyl)-34(2-methoxyethyl)amino)-2-(2-(pyrrolidin-1-yl)ethoxy)quinoline-6-carboxamide [Example 150]”, the 50% inhibitory concentration (IC50) with HSP72 in U2OS cells turned out to be 98 nM; in the test with U2OS cells, 86 nM.

With “N-(5-amino-2-((dimethylamino)methyl)phenyl)-2-methylquinoline-6-carboxamide [Example 165]”, the figures for the half-inhibitory concentration (IC50) in the test with HSP72 in U2OS cells and in the test on U2OS cells were 5 nM and 1 nM, respectively.

As for “tert-butyl (44(64(5-(2,3-dihydrobenzo[b][1,4]dioxine-6-carboxamido)-2-methylphenyl)carbamoyl)quinolin-2-yl)oxy)butyl)carbamate [Example 164]”, the figures for the IC50 with HSP72 in U2OS cells and in the test with U2OS cells were 1540 nM and 859 nM, respectively.
